# Results reported in patent publication US9216968B2, “Heterocyclic derivative and pharmaceutical drug” (NIPPON SHINYAKU CO., LTD., priority 2011, dated 2015).
# Where a name gives a salt, the structure may show the parent alone.
# How the values were obtained:
# [1] = target: human mPGES-1 (Homo sapiens (Human), UniProt O14684); experiment: mPGES-1 inhibiting activity (microsome fractions, PGE2 by HTRF); type: biochemical; details: microsomes from CHO-K1 cells transfected with human mPGES-1; PGH2 1 μM, 4° C., 60 seconds; read-out: mPGES-1 Inhibition IC50
# human mPGES-1, sequence (O14684 whole entry): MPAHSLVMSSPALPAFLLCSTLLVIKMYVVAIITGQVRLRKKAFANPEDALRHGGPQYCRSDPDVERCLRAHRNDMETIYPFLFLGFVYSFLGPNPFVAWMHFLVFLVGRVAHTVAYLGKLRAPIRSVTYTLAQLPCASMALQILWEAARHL
# Description: mPGES-1 microsome fractions were prepared from CHO-K1 cells transiently transfected with plasmid encoding the human mPGES-1cDNA. Microsomes were diluted with potassium phosphate buffer containing reduced glutathione (pH7.4), and DMSO containing test compound or DMSO alone was added (such that DMSO final concentration would be 1% in each) and incubated at 4° C. for 20 minutes. Then, the enzymatic reactions were initiated by the addition of PGH2 substrate (final concentration 1 μM) and incubated at 4° C. for 60 seconds. The reaction was terminated by the addition of a citrate solution (final citrate concentration 50 mM) containing ferric chloride (final concentration 1 mg/mL). PGE2 production in the enzyme reaction aliquot was measured using HTRF kit (Cisbio International, catalogue #62P2APEC). The solution free of test compound was used as positive control, and the solution free of test compound and microsome sample was used as negative control. 100% activity was defined as PGE2 production in the positive control minus PGE2 production in negative control. IC50 value was calculated by standard method.
# [2] = test system: A549 cells; experiment: Inhibition of PGE2 production in A549 cell (IL-1β stimulated); type: cell-based, human; details: Homo sapiens, A549, 24 h, IL-1β 5 ng/well, PGE2 in culture medium
# Description: Human A549 cells were seeded onto a 96-well plate at 2×10^4 cells/100 μL per well and allowed to incubate overnight. After removing the culture medium and washing with phosphate buffered saline, the culture medium was replaced by RPMI culture medium with 3% FBS containing a DMSO solution containing test compound or DMSO alone (such that DMSO final concentration would be […] in each). After incubation for 60 minutes, IL-1β (5 ng/well) was added and incubated at 37° C. for 24 hours. Then, PGE2 in the culture medium was measured using HTRF kit (Cisbio International, catalogue #62P2APEC), and PGF2α in the culture medium was measured using EIA kit (Cayman Chemical Company, catalogue #516011). The solution free of test compound was used as positive control, and the solution free of test compound and IL-1β was used as negative control. 100% activity was defined as PGE2 and PGF2α production in the positive control minus PGE2 and PGF2α production in the negative control. IC50 value was calculated by standard method.
SMILES,IC50 [1] [nM],IC50 [2] [nM]
"O=C(Nc1cc(C(=O)NC2CCCCC2)c2nc[nH]c2c1)c1ccccc1C(F)(F)F [Example 2, N-Cyclohexyl-6-({[2-(trifluoromethyl)phenyl]carbonyl}amino)-1H-benzimidazole-4-carboxamide]",7.6,240
"O=C(Nc1cc2c(c(C(=O)NC3CCCCC3)c1)OCC2)c1ccccc1C(F)(F)F [Example 7, N-Cyclohexyl-5-({[2-(trifluoromethyl)phenyl]carbonyl}amino)-2,3-dihydro-1-benzofuran-7-carboxamide]",105,342
"Cc1c(Cl)cccc1NC(=O)c1cc(NC(=O)c2ccccc2C(F)(F)F)cc2c1OCC2 [Example 8, N-(3-Chloro-2-methylphenyl)-5-({[2-(trifluoromethyl)phenyl]carbonyl}amino)-2,3-dihydro-1-benzofuran-7-carboxamide]",160,106
"Cc1nc2c(C(=O)NC3CCCCC3)cc(NC(=O)c3ccccc3C(F)(F)F)cc2[nH]1 [Example 13, N-Cyclohexyl-2-methyl-6-({[2-(trifluoromethyl)phenyl]carbonyl}amino)-1H-benzimidazole-4-carboxamide hydrochloride]",35.1,75.6
"Cc1nc2c(C(=O)NC3CCCC3)cc(NC(=O)c3ccccc3C(F)(F)F)cc2[nH]1 [Example 15, N-Cyclopentyl-2-methyl-6-({[2-(trifluoromethyl)phenyl]carbonyl}amino)-1H-benzimidazole-4-carboxamide]",37.4,465
"Cc1nc2c(C(=O)NC3CCC3)cc(NC(=O)c3ccccc3C(F)(F)F)cc2[nH]1 [Example 16, N-Cyclobutyl-2-methyl-6-({[2-(trifluoromethyl)phenyl]carbonyl}amino)-1H-benzimidazole-4-carboxamide]",63.9,1300
"CCc1nc2c(C(=O)Nc3cccc(Cl)c3C)cc(NC(=O)c3ccccc3C(F)(F)F)cc2[nH]1 [Example 17, N-(3-Chloro-2-methylphenyl)-2-ethyl-6-({[2-(trifluoromethyl)phenyl]carbonyl}amino)-1H-benzimidazole-4-carboxamide]",9.8,21.6
"CCc1nc2c(C(=O)NC3CCCCC3)cc(NC(=O)c3ccccc3C(F)(F)F)cc2[nH]1 [Example 18, N-Cyclohexyl-2-ethyl-6-({[2-(trifluoromethyl)phenyl]carbonyl}amino)-1H-benzimidazole-4-carboxamide]",21.6,110
"CCc1nc2c(C(=O)NCc3ccccc3C(F)(F)F)cc(NC(=O)c3ccccc3C(F)(F)F)cc2[nH]1 [Example 19, 2-Ethyl-N-[2-(trifluoromethyl)benzyl]-6-({[2-(trifluoromethyl)phenyl]carbonyl}amino)-1H-benzimidazole-4-carboxamide]",9.4,47.8
"COCc1nc2c(C(=O)NCc3ccccc3C(F)(F)F)cc(NC(=O)c3ccccc3C(F)(F)F)cc2[nH]1 [Example 21, 2-(Methoxymethyl)-N-[2-(trifluoromethyl)benzyl]-6-({[2-(trifluoromethyl)phenyl]carbonyl}amino)-1H-benzimidazole-4-carboxamide]",8.3,69.4
"COCc1nc2c(C(=O)NCc3ccccc3Cl)cc(NC(=O)c3ccccc3C(F)(F)F)cc2[nH]1 [Example 24, N-(2-Chlorobenzyl)-2-(methoxymethyl)-6-({[2-(trifluoromethyl)phenyl]carbonyl}amino)-1H-benzimidazole-4-carboxamide hydrochloride]",10.5,751
"COCc1nc2c(C(=O)NCc3ccc(C)cc3)cc(NC(=O)c3ccccc3C(F)(F)F)cc2[nH]1 [Example 25, 2-(Methoxymethyl)-N-(4-methylbenzyl)-6-({[2-(trifluoromethyl)phenyl]carbonyl}amino)-1H-benzimidazole-4-carboxamide hydrochloride]",89,850
"COCc1nc2c(C(=O)NC3CCC(F)(F)CC3)cc(NC(=O)c3ccccc3C(F)(F)F)cc2[nH]1 [Example 26, N-(4,4-Difluorocyclohexyl)-2-(methoxymethyl)-6-({[2-(trifluoromethyl)phenyl]carbonyl}amino)-1H-benzimidazole-4-carboxamide hydrochloride]",172,872

# These reach a lower IC50 [1]. Values come first.
IC50 [1] [nM],IC50 [2] [nM],SMILES
1.5,24.6,"Cc1c(Cl)cccc1NC(=O)c1cc(NC(=O)c2ccccc2C(F)(F)F)cc2[nH]cnc12 [Example 3, N-(3-Chloro-2-methylphenyl)-6-({[2-(trifluoromethyl)phenyl]carbonyl}mino)-1H-benzimidazole-4-carboxamide]"
6.6,12.9,"COCc1nc2c(C(=O)Nc3cccc(Cl)c3C)cc(NC(=O)c3ccccc3C(F)(F)F)cc2[nH]1 [Example 11, N-(3-chloro-2-methylphenyl)-2-(methoxymethyl)-6-({[2-(trifluoromethyl)phenyl]carbonyl}amino)-1H-benzimidazole-4-carboxamide]"
7.1,41,"Cc1nc2c(C(=O)NCc3ccccc3C(F)(F)F)cc(NC(=O)c3ccccc3C(F)(F)F)cc2[nH]1 [Example 12, 2-Methyl-N-[2-(trifluoromethyl)benzyl]-6-({[2-(trifluoromethyl)phenyl]carbonyl}amino)-1H-benzimidazole-4-carboxamide hydrochloride]"
3.8,15.2,"Cc1nc2c(C(=O)Nc3cccc(Cl)c3C)cc(NC(=O)c3ccccc3C(F)(F)F)cc2[nH]1 [Example 14, N-(3-Chloro-2-methylphenyl)-2-methyl-6-({[2-(trifluoromethyl)phenyl]carbonyl}amino)-1H-benzimidazole-4-carboxamide hydrochloride]"
5.6,98,"COCc1nc2c(C(=O)NC3CCCCC3)cc(NC(=O)c3ccccc3C(F)(F)F)cc2[nH]1 [Example 20, N-Cyclohexyl-2-(methoxymethyl)-6-({[2-(trifluoromethyl)phenyl]carbonyl}amino)-1H-benzimidazole-4-carboxamide]"
4.8,104,"COCc1nc2c(C(=O)Nc3ccccc3C)cc(NC(=O)c3ccccc3C(F)(F)F)cc2[nH]1 [Example 22, 2-(Methoxymethyl)-N-(2-methylphenyl)-6-({[2-(trifluoromethyl)phenyl]carbonyl}amino)-1H-benzimidazole-4-carboxamide hydrochloride]"
7.2,116,"COCc1nc2c(C(=O)Nc3ccc(C)cc3)cc(NC(=O)c3ccccc3C(F)(F)F)cc2[nH]1 [Example 23, 2-(Methoxymethyl)-N-(4-methylphenyl)-6-({[2-(trifluoromethyl)phenyl]carbonyl}amino)-1H-benzimidazole-4-carboxamide hydrochloride]"
2.4,16,"COCc1nc2c(C(=O)Nc3ccc(C(C)(C)C)cc3)cc(NC(=O)c3ccccc3C(F)(F)F)cc2[nH]1 [Example 27, N-(4-tert-Butylphenyl)-2-(methoxymethyl)-6-({[2-(trifluoromethyl)phenyl]carbonyl}amino)-1H-benzimidazole-4-carboxamide hydrochloride]"
3.3,114,"COCc1nc2c(C(=O)Nc3ccc(C(F)(F)F)cc3)cc(NC(=O)c3ccccc3C(F)(F)F)cc2[nH]1 [Example 28, 2-(Methoxymethyl)-N-[4-(trifluoromethyl)phenyl]-6-({[2-(trifluoromethyl)phenyl]carbonyl}amino)-1H-benzimidazole-4-carboxamide hydrochloride]"
3.5,85.5,"COCc1nc2c(C(=O)Nc3ccc(C)cc3C)cc(NC(=O)c3ccccc3C(F)(F)F)cc2[nH]1 [Example 29, N-(2,4-Dimethylphenyl)-2-(methoxymethyl)-6-({[2-(trifluoromethyl)phenyl]carbonyl}amino)-1H-benzimidazole-4-carboxamide hydrochloride]"
1.8,210,"COCc1nc2c(C(=O)Nc3ccc(C)cc3Cl)cc(NC(=O)c3ccccc3C(F)(F)F)cc2[nH]1 [Example 30, N-(2-Chloro-4-methylphenyl)-2-(methoxymethyl)-6-({[2-(trifluoromethyl)phenyl]carbonyl}amino)-1H-benzimidazole-4-carboxamide hydrochloride]"
4.1,69,"COCc1nc2c(C(=O)Nc3ccc(C)c(C)c3)cc(NC(=O)c3ccccc3C(F)(F)F)cc2[nH]1 [Example 31, N-(3,4-Dimethylphenyl)-2-(methoxymethyl)-6-({[2-(trifluoromethyl)phenyl]carbonyl}amino)-1H-benzimidazole-4-carboxamide hydrochloride]"
